According to patent publication US9604926B2 (THE UNIVERSITY OF MISSISSIPPI, priority 2007, dated 2017):
Entries after “also recorded” stand apart in the source; their conditions may differ.

Columns and labels:
[1] = Metabolic stability of AZ_66 in rat liver microsomes; assay type: in vitro ADME
Protocol: Metabolic stability of AZ_66 (1 μM) was performed in Ammonium acetate buffer (50 mM, pH 7.4) with Rat liver microsomes (0.5 mg) at 37° C. in 0.5 ml of incubation mixture. The incubation mixture composed of Ammonium acetate buffer (50 mM, pH 7.4), Magnesium chloride (3 mM), NADPH regenerating system consisting of NADP (1 mM), glucose-6-phosphate (5 mM), and glucose-6-phosphate dehydrogenase (1 Unit/mL). The Substrate and microsomes were pre incubated at 37° C. for 5 min before starting the reaction. The reactions were started by the addition of regenerating system and carried out at 37° C. in a shaking water bath for 60 min. The incubations were stopped by adding equal volume of ice cold acetonitrile at predetermined time points (0, 5, 15, 30, 60 min). The samples were centrifuged for 10 min at 4° C. and the supernatant was injected in to UPLC/MS/MS. Control incubation without NADPH was also performed and these served as 100% value. All microsomal incubations were conducted using the same lot of microsomes.
In vitro half-life and CLint: The percent of the parent compound remaining is plotted versus time. The slope of the line gives the rate constant k for the disappearance of parent compound, from which an in vitro t1/2 can be calculated. CLint can be calculated using the following formula
[formula] [V] is the incubation volume in μl and [P] is the amount of microsomal protein in the incubation.

σ-2 receptor = σ-2 receptor (Rattus norvegicus (Rat), UniProt Q5U3Y7); assay: σ-2 receptor binding in rat brain homogenates ([3H]DTG plus (+)-pentazocine); details: read-out: Ki (nm) σ2; compound listing tables
Protocol: Compounds were evaluated for σ-1 and σ-2 binding in rat brain homogenates. […] The assays were terminated with ice-cold 10 mM Tris-HCl, pH 8.0, followed by two washes through glass fiber filters that were pre-soaked for at least 30 min in 0.5% polyethyleneimine.

opioid receptors = assay: Non-σ competition binding, opioid receptors ([3H]bremazocine); details: rat brain homogenates
Protocol: (§1) Compounds were tested at various non-σ target sites to evaluate selectivity because cocaine interacts with these sites (dopamine, serotonin and norepinephrine transporters) or historic “sigma” ligands interact with them (opioid, NMDA, dopamine D2, 5-HT2 receptors). The compounds were tested in competition binding assays using rat brain homogenates as previously published. […] The results were reported as Ki in nM.

Swiss Webster mice [2] = assay: Cocaine-induced convulsions; assay type: in vivo, mouse; details: i.p. pretreatment 15 min before cocaine 70 mg/kg i.p.
Swiss Webster mice [3] = assay: Cocaine-induced locomotor activity; assay type: in vivo, mouse; details: i.p. pretreatment 15 min before cocaine 20 mg/kg i.p.
Protocol: Male, Swiss Webster mice were acclimated to the treatment room and then to the chambers of the automated activity monitoring system (San Diego Instruments, San Diego, Calif.). […] The total locomotor activity (ambulatory, fine and rearing movements) of the mice was recorded for the next 30 min as the number of disruptions made by them in the 16×16 photobeam grid of their testing chamber.

Swiss Webster mice [4] = assay: Expression of cocaine-induced sensitization; assay type: in vivo, mouse; details: compound on Day 15 before cocaine 10 mg/kg i.p.
Protocol: Male, Swiss Webster mice were acclimated as detailed above. For five consecutive days (Days 1-5), the mice were pretreated (i.p) with saline, then challenged 15 min later with cocaine (10 mg/kg, i.p.). The total locomotor activity (ambulatory, fine and rearing movements) of the mice was recorded for the next 30 min. A 10 day drug free period followed and on Day 15, the mice were administered saline (i.p.) or compound (0.1-20 mg/kg), followed 15 min later with cocaine (10 mg/kg, i.p.). Locomotor activity was then recorded for the next 30 min.

Swiss Webster mice [5] = assay: Methamphetamine-induced locomotor activity; assay type: in vivo, mouse; details: i.p. pretreatment 15 min before methamphetamine 1 mg/kg i.p.
Protocol: Male, Swiss Webster mice were acclimated as detailed above. […] The total locomotor activity (ambulatory, fine and rearing movements) of the mice was recorded for the next 30 min as the number of disruptions made by them in the 16×16 photobeam grids surrounding their testing chambers.

Swiss Webster mice [6] = assay: Methamphetamine-induced dopamine depletions; assay type: in vivo, mouse; details: methamphetamine 5 mg/kg x4 at 2 hr intervals, striatal dopamine one week later
Protocol: Male, Swiss Webster mice were injected (i.p.) with saline or compound (0-20 mg/kg), followed 15 min later with either saline (-METH) or methamphetamine (5 mg/kg) at 2 hr intervals, a total of four times. Striatal dopamine levels were measured one week later.

[7] = Partition coefficient (Log P / Log D), shake-flask n-octanol and water/PBS; assay type: physicochemical; details: read-out: experimental Log P O/W±SD
Protocol: Using the Shake-flask method, 47 n-Octanol and water/PBS, pH 7.4 (equal quantity) were added to a glass vial (25 ml). […] Water/PBS, pH 7.4 phase was brought into a vessel together with a Teflon-coated magnetic stirring bar. The n-octanol phase containing the known quantity of test substance was poured very carefully on top of the aqueous phase in order to avoid emulsion formation as far as possible. […] The contents were allowed to separate on standing and then centrifuged. An aliquot of aqueous layer was taken and diluted (1000 times) for quantitative analysis by UPLC/MS/MS.

59 targets (non-sigma) = assay: NovaScreen and in-house profile of 59 targets; assay type: binding; details: nine targets
Protocol: Competition binding assays were performed as previously described. Briefly, radioligands were used to tag the targeted sites under standard conditions.

[8] = In vitro half-life in mouse liver microsomes; assay type: in vitro ADME
Protocol: The reaction was initiated by adding cofactors and quenched at designated time points (0, 5, 10, 15, 30, 45, 60 min) by addition of an equal volume of ice-cold acetonitrile (ACN). […].
The basic incubation mixture consisted of 5 mM substrate, 1 mg/mL microsomal protein, 3 mM MgCl2, 1 mM NADP, 5 mM glucose-6-phosphate, 1 IU/mL glucose-6-phosphate dehydrogenase, 100 mM Tris HCl buffer (pH 7.4) in a final volume of 1 mL. The reaction was initiated by adding cofactors and quenched at designated time points (0, 5, 10, 15, 30, 45, 60 min) by addition of an equal volume of ice-cold ACN. The mixture was centrifuged at 3000 rpm for 10 min, and the supernatant was analysed by UPLC/MS/MS.

[9] = assay type: in vitro ADME
Swiss Webster mice [10] = assay: In vivo cocaine studies with CM304 (cocaine-induced convulsions); details: 0.001-10 mg/kg i.p. 15 min before cocaine 70 mg/kg i.p., hydrochloride
σ-1 receptor = σ-1 receptor (Homo sapiens (Human), UniProt Q99720); details: literature, cited from earlier work
NMDA receptors = assay: Non-σ competition binding, NMDA receptors ([3H]TCP); details: rat brain homogenates
Protocol: as §1

dopamine D2 receptors = dopamine D2 receptors (Rattus norvegicus (Rat), UniProt P61169); assay: Non-σ competition binding, dopamine D2 receptors ([3H](−)-sulpiride); details: rat brain homogenates
Protocol: as §1

5-HT2 receptors = 5-HT2 receptors (Rattus norvegicus (Rat), UniProt P14842); assay: Non-σ competition binding, 5-HT2 receptors ([3H]ketanserin); details: rat brain homogenates
Protocol: as §1

Swiss Webster mice [11] = assay: Development of cocaine-induced sensitization; assay type: in vivo, mouse; details: pretreatment Days 1-5, cocaine 10 mg/kg i.p., test Day 15
Protocol: Male, Swiss Webster mice were acclimated as detailed above. […] The total locomotor activity (ambulatory, fine and rearing movements) of the mice was recorded for the next 30 min as the number of disruptions made by them in the 16×16 photobeam grids of their testing chamber on each of the five days. A 10 day drug-free period followed. On Day 15, all of the mice were pre-administered (i.p.) saline followed by cocaine (10 mg/kg, i.p.), and locomotor activity quantified for the next 30 min.

mouse brain = details: mice, literature; cited from earlier work
[12] = target: σ-1 receptor (CHO cells transfected with σ-1 receptor cDNA) (Homo sapiens (Human), UniProt Q99720); assay: Cell uptake studies in transfected CHO cells; details: 120 min
Protocol: Control CHO cells (transfected with a vector not containing the σ-1 receptor gene—to serve as a negative control) and CHO cells transfected with a vector containing σ-1 receptor cDNA (to serve as a positive control for σ-1 receptor expression in cells) were used for the uptake assays. […] The incubated cells were subsequently washed, lysed and counted for radioactivity. All collected data were normalized for amount of protein present in each well.
Cells CHO cells were grown in Ham's F-12 medium. For uptake studies CHO cells were transfected using Lipofectamine 2000 (Invitrogen, Carlsbad, Calif., USA) and either pcDNA (empty vector, negative control) or σ-1 receptor gene (OPRS1, accession number NM_005866.2, OriGene, Rockville, Md., USA) following manufacturers directions. […] Twenty-four hours later, CHO cells were transfected with either 0.8 μg pcDNA (empty vector, control), or 0.8 μg sigma-1 DNA. […] A portion of each lysate (250 μL) was transferred to a glass tube and activity was measured with a Cobra II γ counter (Packard-Perkin Elmer, Waltham, Mass., USA). Protein content from each well was measured by Bradford assay. The same protocol was followed for (+)-[^3H]pentazocine, except the activity was measured with a liquid scintillation counter (Beckman Coulter LS 6500, Brea, Calif., USA).

rat brain = details: literature; cited from earlier work

Chain of σ-1 receptor (Q99720 whole entry, species assumed): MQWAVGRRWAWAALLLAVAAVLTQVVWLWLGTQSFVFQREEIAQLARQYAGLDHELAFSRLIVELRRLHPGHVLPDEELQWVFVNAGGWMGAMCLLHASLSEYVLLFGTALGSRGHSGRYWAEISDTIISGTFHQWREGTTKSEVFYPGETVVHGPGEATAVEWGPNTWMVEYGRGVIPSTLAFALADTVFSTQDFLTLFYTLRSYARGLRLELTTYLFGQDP
Chain of dopamine D2 receptors (P61169 whole entry): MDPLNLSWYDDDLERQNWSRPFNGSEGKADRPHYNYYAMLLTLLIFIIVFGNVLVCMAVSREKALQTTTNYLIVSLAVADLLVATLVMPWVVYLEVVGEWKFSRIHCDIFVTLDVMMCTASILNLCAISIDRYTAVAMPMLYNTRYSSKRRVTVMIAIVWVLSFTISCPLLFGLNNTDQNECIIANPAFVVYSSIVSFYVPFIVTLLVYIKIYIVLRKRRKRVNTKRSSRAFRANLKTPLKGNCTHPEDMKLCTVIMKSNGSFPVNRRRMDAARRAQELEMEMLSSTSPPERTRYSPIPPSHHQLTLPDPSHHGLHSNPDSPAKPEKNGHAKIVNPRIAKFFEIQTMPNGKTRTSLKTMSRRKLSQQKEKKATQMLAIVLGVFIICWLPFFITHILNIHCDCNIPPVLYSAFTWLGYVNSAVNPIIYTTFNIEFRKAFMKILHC
Chain of 5-HT2 receptors (P14842 whole entry): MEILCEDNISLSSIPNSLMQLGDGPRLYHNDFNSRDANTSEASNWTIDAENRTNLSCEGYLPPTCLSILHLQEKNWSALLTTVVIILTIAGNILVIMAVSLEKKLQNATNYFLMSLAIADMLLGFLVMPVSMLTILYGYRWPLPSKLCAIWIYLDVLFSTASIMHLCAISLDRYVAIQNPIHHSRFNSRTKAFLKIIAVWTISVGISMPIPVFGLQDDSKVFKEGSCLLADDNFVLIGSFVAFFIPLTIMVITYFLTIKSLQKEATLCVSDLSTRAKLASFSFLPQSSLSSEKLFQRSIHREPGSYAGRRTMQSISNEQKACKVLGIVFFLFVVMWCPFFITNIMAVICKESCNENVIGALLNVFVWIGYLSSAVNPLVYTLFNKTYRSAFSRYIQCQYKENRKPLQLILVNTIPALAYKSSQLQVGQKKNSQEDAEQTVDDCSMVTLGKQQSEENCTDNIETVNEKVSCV
Chain of σ-1 receptor (CHO cells transfected with σ-1 receptor cDNA) (Q99720 whole entry): as the sequence (Q99720 whole entry, species assumed) above
Chain of σ-2 receptor (Q5U3Y7 whole entry): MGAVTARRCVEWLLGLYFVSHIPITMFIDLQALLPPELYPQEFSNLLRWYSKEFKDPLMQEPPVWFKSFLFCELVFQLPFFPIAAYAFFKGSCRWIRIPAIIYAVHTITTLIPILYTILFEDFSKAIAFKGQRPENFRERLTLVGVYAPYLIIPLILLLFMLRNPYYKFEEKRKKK

In the case of `CC(CCCn1c(=O)sc2cc(F)ccc21)N1CCN(C2CCCCC2)CC1` (stereo not drawn) [AZ-66], the CLint whole liver ([1]; AZ_66 1 μM, rat) is reported as 0.002434 L/min, the half-life at 1 μM ([1]; pH 7.4, rat liver microsomes, 1 μM, 0-30 min linear part, read-out: estimated t1/2 for disappearance) is reported as 116 ± 15 min and the “added substrate metabolized by 60 min” value ([1]; rat liver microsomes, 60 min) is reported as “about 25%”. The microsomal CLint at 1 μM ([1]; rat, rat liver microsomes, pH 7.4, read-out: estimated CLint from microsomes) was 6 µL/min/mg and the Ki (σ-2 receptor) was 1.76 ± 0.34 nM.

With `S=c1sc2ccccc2n1CCCCN1CCN(C2CCCCC2)CC1` [CM156] the Ki (opioid receptors) was > 10000 nM, the “attenuation of cocaine-induced convulsions” value (Swiss Webster mice [2]) was “significant attenuation; also recorded: attenuates the convulsive effects of cocaine” and the “attenuation of cocaine-induced locomotor activity” value (Swiss Webster mice [3]) was “significant attenuation; also recorded: attenuates cocaine-induced locomotor activity”. For the same compound, the “attenuation of expression of cocaine-induced sensitization” value (Swiss Webster mice [4]) was “significant attenuation; also recorded: attenuates the expression of cocaine-induced sensitization”, the “attenuation of methamphetamine-induced locomotor activity” value (Swiss Webster mice [5]) was “attenuated the locomotor stimulant effects of methamphetamine; also recorded: attenuates methamphetamine-induced locomotor activity” and the “attenuation of methamphetamine-induced dopamine depletions (neurotoxic effects)” value (Swiss Webster mice [6]) was “attenuated; also recorded: attenuates methamphetamine-induced dopamine depletions”.

In the case of `Cl.O=c1sc2cc(CCCF)ccc2n1CCN1CCCCCC1` [CM304, 3-(2-(azepan-1-yl)ethyl)-6-(3-fluoropropyl)benzo[d]thiazol-2(3H)-one hydrochloride], the logP [7] is reported as -0.15 ± 0.05, the “displacement of the radioligand at 100 nM” value (59 targets (non-sigma); 100 nM screening concentration) is reported as < 20% and the “displacement of the radioligand at 10,000 nM” value (59 targets (non-sigma); 10,000 nM screening concentration) is reported as > 50%. The “clearance in mouse liver microsomes” value [8] was 0.55 mL/min/g, the half-life at 5 mM ([8]; mouse, microsomes, pH 7.4) was 4.2 min and the “clearance in rat liver microsomes” value [9] was 0.18 mL/min/g. For the same compound, the “attenuation of cocaine-induced convulsions by CM304” value (Swiss Webster mice [10]) was “significantly attenuated cocaine-induced convulsions at all doses examined”.

For `CCCc1ccc2c(c1)sc(=O)n2CCN1CCCCC1` [SN56], the “Selectivity Ratio for the σ-1 receptor (reported)” value (σ-1 receptor) is listed as > 1000 and the Ki (σ-1 receptor; read-out: Ki at σ-1 receptor (reported)) is listed as 0.56 nM.

With `CC(=O)c1ccc2c(c1)oc(=O)n2CCCCN1CCN(c2ccc(F)cc2)CC1.Cl.Cl` [SN-79] the Ki (opioid receptors) was > 10000 nM, the Ki (NMDA receptors) was > 10000 nM and the Ki (dopamine D2 receptors) was > 10000 nM. For the same compound, the Ki (5-HT2 receptors) was 320 ± 16 nM, the “attenuation of cocaine-induced convulsions” value (Swiss Webster mice [2]) was “significant attenuation; also recorded: attenuates the convulsive effects of cocaine” and the “attenuation of cocaine-induced locomotor activity” value (Swiss Webster mice [3]) was “significant attenuation; also recorded: attenuates cocaine-induced locomotor activity”. For the same compound, the “attenuation of development of cocaine-induced sensitization” value (Swiss Webster mice [11]) was “significant attenuation; also recorded: attenuates the development of cocaine-induced sensitization” and the “attenuation of expression of cocaine-induced sensitization” value (Swiss Webster mice [4]) was “attenuates the expression of cocaine-induced sensitization”.

For `O=C(Cc1ccccc1F)NC1CCN(Cc2ccc([18F])cc2)CC1` [[^18F]FBFPA, N-[^18F]4′-fluorobenzylpiperidin-4yl-(2-fluorophenyl) acetamide, reference compound], the “affinity for σ-2 receptor/σ-1 receptor (reported)” value (σ-1 receptor) is listed as 44.

For `COc1cc(CCN2CCN(CCCc3ccccc3)CC2)ccc1OC[18F]` [[^18F]FM-SA4503], the “time of maximum uptake in the brain” value (mouse brain) is listed as 30 minutes post injection.

In the case of `O=c1sc2cc(CCC[18F])ccc2n1CCN1CCCCCC1` [[^18F]FTC-146, 6-(3-fluoropropyl)-3-(2-(azapan-1-yl)ethyl)benzo[d]thiazol-2(3H)-one], the “uptake in cells transfected with σ-1 receptor cDNA versus control CHO cells” value [12] is reported as 4 fold.

In the case of `N#Cc1ccc(OCC2CCN(CC[18F])CC2)cc1` [[^18F]SFE], the “reduction in peak uptake in rat brain over a 90 min period” value (rat brain) is listed as 40%.

In the case of `[17F]CCC1OC2(CCN(Cc3ccccc3)CC2)c2ccccc21` (stereo not drawn) [[^18F]fluspidine], the “brain level at 60 minutes post injection relative to maximum (reported)” value (mouse brain) is listed as 81 % of its maximum.
